{
  "source": "patent US12404283B2",
  "about": "“c-MYC mRNA translation modulators and uses thereof in the treatment of cancer” (Anima Biotech Inc., priority 2022, dated 2025)",
  "data": [
    {"tested_on": "c-Myc", "assay": "c-Myc immunofluorescence assay", "type": "cell-based, human", "settings": "A549 cells, 24 hours treatment, anti-c-Myc immunofluorescence", "procedure": "A549 human non-small cell lung carcinoma cells were treated for 24 hours with increasing compound concentration, cells were fixed and stained with a nuclei stain (DAPI) and anti-c-Myc fluorescent antibody. The c-Myc signal was quantified by image analysis, and data was exported and analyzed using TIBCO Spotfire® (TIBCO Corporation). Dose response curves were generated and fitted with logaristic regression to calculate potency (EC50 values). Potency values are presented in Table 2 for all compounds and are shown for selected compounds (FIG. 4).\nA549 cells were grown in 384-wells plates (Perkin Elmer, Cat. 6057300) for 48 hours, treated with compounds and then fixed for 20 min in 4% paraformaldehyde. After that permeabilization was done using 0.1% Triton X-100 in PBS for 20 min. Primary anti-c-Myc antibody (Abcam, ab32072) staining was performed for 90 min at room temperature. Cells then were washed twice with PBS and incubated with secondary antibody (Abcam, ab150075) for 90 min at room temperature. Nuclei were stained with DAPI for 10 min and washed twice with PBS.\nCell images were taken with Operetta (Perkin Elmer, USA), a wide-field fluorescence microscope at 20× magnification. After acquisition, the images were transferred to Columbus software (Perkin-Elmer) for image analysis. In Columbus, cells were identified by their nucleus, using the “Find Nuceli” module and cytoplasm was detected based on the secondary antibody channel. Subsequently, the fluorescent signal was enumerated in the identified cell region. Then data was exported to a data analysis and visualization software, Tibco Spotfire, USA.", "values": [
      {"smiles": "O=C(NCCCN1CCC(F)CC1)c1ccc2c(c1)sc1nc(-c3ccc(C4CC(O)CN4)cc3F)cn12", "note": "(stereo not drawn) [Compound 493, 2-(2-fluoro-4-(4-hydroxypyrrolidin-2-yl)phenyl)-N-(3-(4-fluoropiperidin-1-yl)propyl)benzo[d]imidazo[2,1-b]thiazole-7-carboxamide]", "Myc Efficacy (−LogEC50)": "+++ (+++ ≥6)"},
      {"smiles": "CNC(=O)c1ccc2c(c1)sc1nc(-c3ccc(C4CCCN4)cc3F)cn12", "note": "(stereo not drawn) [Compound 498, 2-(2-fluoro-4-(pyrrolidin-2-yl)phenyl)-N-methylbenzo[d]imidazo[2,1-b]thiazole-7-carboxamide]", "Myc Efficacy (−LogEC50)": "+++ (+++ ≥6)"},
      {"smiles": "CN1CCC(NC(=O)c2ccc3c(c2)sc2nc(-c4ccc(C5CCCN5)cc4F)cn23)CC1", "note": "(stereo not drawn) [Compound 500, 2-(2-fluoro-4-(pyrrolidin-2-yl)phenyl)-N-(1-methylpiperidin-4-yl)benzo[d]imidazo[2,1-b]thiazole-7-carboxamide]", "Myc Efficacy (−LogEC50)": "+++ (+++ ≥6)"},
      {"smiles": "O=C(NCCCN1CCC(F)CC1)c1cc2sc3nc(-c4ccc(C5CCCN5)cc4F)cn3c2cn1", "note": "(stereo not drawn) [Compound 501, 2-(2-fluoro-4-(pyrrolidin-2-yl)phenyl)-N-(3-(4-fluoropiperidin-1-yl)propyl)imidazo[2′,1′:2,3]thiazolo[4,5-c]pyridine-7-carboxamide]", "Myc Efficacy (−LogEC50)": "+++ (+++ ≥6)"},
      {"smiles": "CN1CCC(NC(=O)c2ccc3c(c2)sc2nc(-c4ccc([C@H]5CCCN5)cc4F)cn23)CC1", "note": "[Compound 503R, (R)-2-(2-fluoro-4-(pyrrolidin-2-yl)phenyl)-N-(1-methylpiperidin-4-yl)benzo[d]imidazo[2,1-b]thiazole-7-carboxamide]", "Myc Efficacy (−LogEC50)": "+++ (+++ ≥6)"},
      {"smiles": "CN1CCC(NC(=O)c2ccc3c(c2)sc2nc(-c4ccc([C@@H]5CCCN5)cc4F)cn23)CC1", "note": "[Compound 503S, (S)-2-(2-fluoro-4-(pyrrolidin-2-yl)phenyl)-N-(1-methylpiperidin-4-yl)benzo[d]imidazo[2,1-b]thiazole-7-carboxamide]", "Myc Efficacy (−LogEC50)": "+++ (+++ ≥6)"},
      {"smiles": "CNC(=O)c1ccc2c(c1)sc1nc(-c3ccc(C4CCNC4)cc3F)cn12", "note": "(stereo not drawn) [Compound 504, 2-(2-fluoro-4-(pyrrolidin-3-yl)phenyl)-N-methylbenzo[d]imidazo[2,1-b]thiazole-7-carboxamide]", "Myc Efficacy (−LogEC50)": "+++ (+++ ≥6)"},
      {"smiles": "CN1CCC(NC(=O)c2ccc3c(c2)sc2nc(-c4ccc(C5CCNC5)cc4F)cn23)CC1", "note": "(stereo not drawn) [Compound 505, 2-(2-fluoro-4-(pyrrolidin-3-yl)phenyl)-N-(1-methylpiperidin-4-yl)benzo[d]imidazo[2,1-b]thiazole-7-carboxamide]", "Myc Efficacy (−LogEC50)": "+++ (+++ ≥6)"},
      {"smiles": "CN1CC(NC(=O)c2ccc3c(c2)sc2nc(-c4ccc(C5CCCN5)cc4F)cn23)C1", "note": "(stereo not drawn) [Compound 506, 2-(2-fluoro-4-(pyrrolidin-2-yl)phenyl)-N-(1-methylazetidin-3-yl)benzo[d]imidazo[2,1-b]thiazole-7-carboxamide]", "Myc Efficacy (−LogEC50)": "+++ (+++ ≥6)"},
      {"smiles": "O=C1CNC(c2ccc(-c3cn4c(n3)sc3cc(C(=O)NCCCN5CCC(F)CC5)ccc34)c(F)c2)C1", "note": "(stereo not drawn) [Compound 507, 2-(2-fluoro-4-(4-oxopyrrolidin-2-yl)phenyl)-N-(3-(4-fluoropiperidin-1-yl)propyl)benzo[d]imidazo[2,1-b]thiazole-7-carboxamide]", "Myc Efficacy (−LogEC50)": "+++ (+++ ≥6)"},
      {"smiles": "O=C(NCCCN1CCC(F)CC1)c1ccc2c(c1)sc1nc(-c3ccc(C4CCNCC4)cc3F)cn12", "note": "[Compound 508, 2-(2-fluoro-4-(piperidin-4-yl)phenyl)-N-(3-(4-fluoropiperidin-1-yl)propyl)benzo[d]imidazo[2,1-b]thiazole-7-carboxamide]", "Myc Efficacy (−LogEC50)": "+++ (+++ ≥6)"},
      {"smiles": "O=C(NCCCN1CCC(F)CC1)c1cc2sc3nc(-c4ccc([C@H]5CCCN5)cc4F)cn3c2cn1", "note": "[Compound 509R, (R)-2-(2-fluoro-4-(pyrrolidin-2-yl)phenyl)-N-(3-(4-fluoropiperidin-1-yl)propyl)imidazo[2′,1′:2,3]thiazolo[4,5-c]pyridine-7-carboxamide]", "Myc Efficacy (−LogEC50)": "+++ (+++ ≥6)"}
    ]}
  ]
}
